Consider 5 molecules from patent publication US6492515B2, “4,4-disubstituted-1, 4-dihydro-2H-3, 1-benzoxazin-2-ones useful as HIV reverse transcriptase inhibitors and intermediates and processes for making the same” (Bristol-Myers Squibb Pharma Company, priority 1996, dated 2002).

The structures appear in SMILES notation.

The target in data set [1] is HIV-1 reverse transcriptase (Human immunodeficiency virus type 1 group M subtype B, UniProt P04585). Description: Inhibition of HIV reverse transcriptase (statement in background). The class given is biochemical. Particulars: metabolite of NNRTI from rat, monkey and human microsomes.

`O=C1Nc2c(F)cc(Cl)cc2C(C#CC2CC2)(C(F)(F)F)O1` (racemic) [Example 4, (+/−)-6-Chloro-4-(cyclopropylethynyl)-8-fluoro-4-(trifluoromethyl)-1,4-dihydro-2H-3,1-benzoxazin-2-one] displayed a melting point of 169 to 171 °C.
The same measure, in the same setting: for `Cc1ccc2c(c1)C(C#CC1CC1)(C(C)C)OC(=O)N2` (racemic) [Example 5, (+/−)-4-Cyclopropylethynyl-4-isopropyl-6-methyl-1,4-dihydro-2H-3,1-benzoxazin-2-one] the value was 138 to 138.5 °C.
The same measure, in the same setting: in the case of `CC(=O)c1ccc2c(c1)C(C#CC1CC1)(C(F)(F)F)OC(=O)N2` (racemic) [Example 7, (+/−)-6-Acetyl-4-cyclopropylethynyl-4-trifluoromethyl-1,4-dihydro-2H-3,1-benzoxazin-2-one] it was 197 to 200 °C.
In the case of `O=C1Nc2c(O)cc(Cl)cc2[C@@](C#CC2CC2)(C(F)(F)F)O1` [Example 2, (−)-6-Chloro-4-(cyclopropylethynyl)-8-hydroxy-4-(trifluoromethyl)-1,4-dihydro-2H-3,1-benzoxazin-2-one], the “inhibitor of HIV reverse transcriptase” value in data set [1] was “potent inhibitor”.
As to `O=C1Nc2ccc(Cl)cc2[C@@](C#Cc2ccccn2)(C(F)(F)F)O1` [Example 23], the melting point came out at 185.8 °C.

The term melting point denotes the temperature, or range, at which the solid turns liquid.
